Patent publication US7138361B2, “Herbicidal heterocycles” (E. I. du Pont de Nemours and Company, priority 2000, dated 2006)

Columns and labels:
Assay type in all cases: in vivo
Sunflower = experiment: Test C preemergence; conditions: Rate 500 g/ha, visual evaluation after 12 to 14 days
Nightshade = experiment: Test C preemergence; conditions: Rate 500 g/ha, visual evaluation after 12 to 14 days
[1] = system: giant foxtail (Setaria faberii); experiment: Test B preemergence
Procedure, shortened: (§1)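 Ratings on a 0 to 100 visual scale (100 complete control) compare treated plants with controls 13 to 15 days after application. Treatments were pre- or postemergence sprays of compound in non-phytotoxic solvent with surfactant.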

[2] = system: velvetleaf (Abutilon theophrasti); experiment: Test B preemergence
Procedure, shortened: as §1

[3] = system: Surinam grass (Brachiaria decumbens); experiment: Test B preemergence
Procedure, shortened: as §1

corn (Zea mays) [4] = experiment: Test B preemergence
Procedure, shortened: as §1

[5] = system: cocklebur (Xanthium strumarium); experiment: Test B preemergence
Procedure, shortened: as §1

rice (Oryza saliva) = experiment: Test B preemergence
Procedure, shortened: as §1

[6] = system: morning glory (Ipomoea hederacea); experiment: Test B preemergence
Procedure, shortened: as §1

[7] = system: crabgrass (Digitaria sanguinalis); experiment: Test B preemergence
Procedure, shortened: as §1

[8] = system: pigweed (Amaranthus retroflexus); experiment: Test B preemergence
Procedure, shortened: as §1

[9] = system: barnyardgrass (Echinochloa crus-galli); experiment: Test B preemergence
Procedure, shortened: as §1

[10] = system: lambsquarters (Chenopodium album); experiment: Test B preemergence
Procedure, shortened: as §1

[11] = system: smallflower flatsedge (Cyperus difformis); experiment: Test C flooded paddy test; conditions: for Flatsedge plant response rating: Flooded Paddy, scale 0 to 100, 0 no effect, 100 complete control; for Plant response rating, Flatsedge: flooded paddy test, scale 0 to 100 (0 no effect, 100 complete control)
Procedure, shortened: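 Visually assessed vs untreated controls 12–14 d post-treatment (greenhouse). Flooded paddy plants were at the 2-leaf stage; scale 0 = no effect, 100 = complete control.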

[12] = system: giant foxtail (Setaria faberii); experiment: Test B postemergence; conditions: 13 to 15 days
Procedure, shortened: as §1

[13] = system: velvetleaf (Abutilon theophrasti); experiment: Test B postemergence; conditions: 13 to 15 days
Procedure, shortened: as §1

[14] = system: Surinam grass (Brachiaria decumbens); experiment: Test B postemergence; conditions: 13 to 15 days
Procedure, shortened: as §1

corn (Zea mays) [15] = experiment: Test B postemergence; conditions: 13 to 15 days
Procedure, shortened: as §1

[16] = system: cocklebur (Xanthium strumarium); experiment: Test B postemergence; conditions: 13 to 15 days
Procedure, shortened: as §1

wild oat (Avena fatua) = experiment: Test B postemergence; conditions: 13 to 15 days
Procedure, shortened: as §1

[17] = system: morning glory (Ipomoea hederacea); experiment: Test B postemergence; conditions: 13 to 15 days
Procedure, shortened: as §1

[18] = system: crabgrass (Digitaria sanguinalis); experiment: Test B postemergence; conditions: 13 to 15 days
Procedure, shortened: as §1

[19] = system: blackgrass (Alopecurus myosuroides); experiment: Test B postemergence; conditions: 13 to 15 days
Procedure, shortened: as §1

[20] = system: pigweed (Amaranthus retroflexus); experiment: Test B postemergence; conditions: 13 to 15 days
Procedure, shortened: as §1

[21] = system: barnyardgrass (Echinochloa crus-galli); experiment: Test B postemergence; conditions: 13 to 15 days
Procedure, shortened: as §1

[22] = system: lambsquarters (Chenopodium album); experiment: Test B postemergence; conditions: 13 to 15 days
Procedure, shortened: as §1

[23] = system: wheat (Triticum aestivum); experiment: Test B postemergence; conditions: 13 to 15 days
Procedure, shortened: as §1

[24] = Preemergence, Rate 500 g/ha, scale 0 to 100, 0 no effect, 100 complete control
[25] = preemergence, Rate 125 g/ha, scale of 0 to 100 where 0 is no effect and 100 is complete control, 13 to 15 days
[26] = Rate 125 g/ha, scale 0 (no effect) to 100 (complete control)
[27] = Rate 500 g/ha, scale 0 to 100, 0 is no effect, 100 is complete control

CC1(c2ccn(C3SCN(c4cccc(C(F)(F)F)c4)C3=O)n2)CC1 (stereo not drawn) [Compound 64]
Plant response rating (0 to 100), Sunflower (Sunflower): 60
Plant response rating (0 to 100), Nightshade (Nightshade): 90
Plant response rating, Foxtail, Giant [1, 24]: 90
Plant response rating, Foxtail, Giant [1, 25]: 0
Plant response rating, Velvetleaf [2, 24]: 0
Plant response rating, Velvetleaf [2, 25]: 0
Plant response rating, Surinam grass [3, 24]: 60
Plant response rating, Surinam grass [3, 25]: 30
Plant response rating, Corn (corn (Zea mays) [4]; [24]): 20
Plant response rating, Corn (corn (Zea mays) [4]; [25]): 0
Plant response rating, Cocklebur [5, 24]: 10
Plant response rating, Cocklebur [5, 25]: 0
Plant response rating, Rice (rice (Oryza saliva); [24]): 0
Plant response rating, Rice (rice (Oryza saliva); [25]): 0
Plant response rating, Morningglory [6, 24]: 10
Plant response rating, Morningglory [6, 25]: 0
Plant response rating, Crabgrass [7, 24]: 100
Plant response rating, Crabgrass [7, 25]: 40
Plant response rating, Pigweed [8, 24]: 100
Plant response rating, Pigweed [8, 25]: 100
Plant response rating, Barnyardgrass [9, 24]: 90
Plant response rating, Barnyardgrass [9, 25]: 50
Plant response rating, Lambsquarters [10, 24]: 100
Plant response rating, Lambsquarters [10, 25]: 100
Flatsedge plant response rating ([11]; Rate 250 g/ha): 100
Flatsedge plant response rating ([11]; Rate 500 g/ha): 100
Plant response rating, Flatsedge ([11]; Rate 62 g/ha): 100
Plant response rating, Flatsedge ([11]; Rate 125 g/ha): 100
Plant response rating, Foxtail, Giant [12, 26]: 0
Plant response rating, Foxtail, Giant [12, 27]: 30
Plant response rating, Velvetleaf [13, 26]: 0
Plant response rating, Velvetleaf [13, 27]: 30
Plant response rating, Surinam grass [14, 26]: 0
Plant response rating, Surinam grass [14, 27]: 40
Plant response rating, Corn (corn (Zea mays) [15]; [26]): 0
Plant response rating, Corn (corn (Zea mays) [15]; [27]): 20
Plant response rating, Cocklebur [16, 26]: 70
Plant response rating, Cocklebur [16, 27]: 70
Plant response rating, Wild Oat (wild oat (Avena fatua); [26]): 0
Plant response rating, Wild Oat (wild oat (Avena fatua); [27]): 0
Plant response rating, Morningglory [17, 26]: 0
Plant response rating, Morningglory [17, 27]: 60
Plant response rating, Crabgrass [18, 26]: 0
Plant response rating, Crabgrass [18, 27]: 50
Plant response rating, Blackgrass [19, 26]: 0
Plant response rating, Blackgrass [19, 27]: 0
Plant response rating, Pigweed [20, 26]: 40
Plant response rating, Pigweed [20, 27]: 70
Plant response rating, Barnyardgrass [21, 26]: 0
Plant response rating, Barnyardgrass [21, 27]: 50
Plant response rating, Lambsquarters [22, 26]: 70
Plant response rating, Lambsquarters [22, 27]: 80
Plant response rating, Wheat [23, 26]: 0
Plant response rating, Wheat [23, 27]: 0

CCC(C)c1ccn(C2OCN(c3cccc(OC(F)(F)F)c3)C2=O)n1 (stereo not drawn) [Compound 67]
Plant response rating (0 to 100), Sunflower (Sunflower): 30
Plant response rating (0 to 100), Nightshade (Nightshade): 60
Plant response rating, Foxtail, Giant [1, 24]: 40
Plant response rating, Foxtail, Giant [1, 25]: 40
Plant response rating, Velvetleaf [2, 24]: 0
Plant response rating, Velvetleaf [2, 25]: 0
Plant response rating, Surinam grass [3, 24]: 50
Plant response rating, Surinam grass [3, 25]: 20
Plant response rating, Corn (corn (Zea mays) [4]; [24]): 20
Plant response rating, Corn (corn (Zea mays) [4]; [25]): 0
Plant response rating, Cocklebur [5, 24]: 0
Plant response rating, Cocklebur [5, 25]: 0
Plant response rating, Rice (rice (Oryza saliva); [24]): 40
Plant response rating, Rice (rice (Oryza saliva); [25]): 40
Plant response rating, Morningglory [6, 24]: 0
Plant response rating, Morningglory [6, 25]: 0
Plant response rating, Crabgrass [7, 24]: 80
Plant response rating, Crabgrass [7, 25]: 20
Plant response rating, Pigweed [8, 24]: 100
Plant response rating, Pigweed [8, 25]: 100
Plant response rating, Barnyardgrass [9, 24]: 100
Plant response rating, Barnyardgrass [9, 25]: 60
Plant response rating, Lambsquarters [10, 24]: 100
Plant response rating, Lambsquarters [10, 25]: 100
Flatsedge plant response rating ([11]; Rate 250 g/ha): 100
Flatsedge plant response rating ([11]; Rate 500 g/ha): 100
Plant response rating, Flatsedge ([11]; Rate 62 g/ha): 100
Plant response rating, Flatsedge ([11]; Rate 125 g/ha): 100
Plant response rating, Foxtail, Giant [12, 26]: 20
Plant response rating, Foxtail, Giant [12, 27]: 40
Plant response rating, Velvetleaf [13, 26]: 0
Plant response rating, Velvetleaf [13, 27]: 20
Plant response rating, Surinam grass [14, 26]: 30
Plant response rating, Surinam grass [14, 27]: 30
Plant response rating, Corn (corn (Zea mays) [15]; [26]): 0
Plant response rating, Corn (corn (Zea mays) [15]; [27]): 0
Plant response rating, Cocklebur [16, 26]: 0
Plant response rating, Cocklebur [16, 27]: 60
Plant response rating, Wild Oat (wild oat (Avena fatua); [26]): 0
Plant response rating, Wild Oat (wild oat (Avena fatua); [27]): 0
Plant response rating, Morningglory [17, 26]: 0
Plant response rating, Morningglory [17, 27]: 0
Plant response rating, Crabgrass [18, 26]: 50
Plant response rating, Crabgrass [18, 27]: 100
Plant response rating, Blackgrass [19, 26]: 0
Plant response rating, Blackgrass [19, 27]: 0
Plant response rating, Pigweed [20, 26]: 0
Plant response rating, Pigweed [20, 27]: 0
Plant response rating, Barnyardgrass [21, 26]: 90
Plant response rating, Barnyardgrass [21, 27]: 100
Plant response rating, Lambsquarters [22, 26]: 90
Plant response rating, Lambsquarters [22, 27]: 100
Plant response rating, Wheat [23, 26]: 0
Plant response rating, Wheat [23, 27]: 0
